Laboratory results as given in patent US9884842B2, “Combretastatin analogs” (The Board of Trustees of the University of Arkansas, priority 2013, dated 2018).

Experiments:
NCI-H522 = assay: NCI growth inhibition and cytotoxicity screen, Lung Cancer panel; format: cell-based; conditions: Homo sapiens, NCI-H522, Table 1, cell line NCIH522 (Lung Cancer)
SF-295 = assay: NCI growth inhibition and cytotoxicity screen, CNS Cancer panel; format: cell-based; conditions: Homo sapiens, SF-295, Table 1, cell line SF-2395 (CNS Cancer)
HL-60(TB) = assay: cells; conditions: Homo sapiens
OVCAR-3 = assay: cells; conditions: Homo sapiens
CCRF-CEM = assay: NCI growth inhibition and cytotoxicity screen, Leukemia panel; conditions: Homo sapiens
K-562 = assay: as above; conditions: Homo sapiens
RPMI-8226 = assay: as above; conditions: Homo sapiens
LOX-IMVI = assay: NCI growth inhibition and cytotoxicity screen, Melanoma panel; conditions: Homo sapiens
MDA-MB-435 = assay: as above; conditions: Homo sapiens
SK-MEL-2 = assay: as above; conditions: Homo sapiens
UACC-257 = assay: as above; conditions: Homo sapiens
SF-539 = assay: NCI growth inhibition and cytotoxicity screen, CNS Cancer panel; conditions: Homo sapiens
SNB-19 = assay: as above; conditions: Homo sapiens
SNB-75 = assay: as above; conditions: Homo sapiens
U251 = assay: as above; conditions: Homo sapiens
A549/ATCC = assay: NCI growth inhibition and cytotoxicity screen, Lung Cancer panel; conditions: Homo sapiens
HOP-92 = assay: as above; conditions: Homo sapiens
NCI-H226 = assay: as above; conditions: Homo sapiens
NCI-H23 = assay: as above; conditions: Homo sapiens
HCC-2998 = assay: NCI growth inhibition and cytotoxicity screen, Colon Cancer panel; conditions: Homo sapiens
A498 = assay: NCI growth inhibition and cytotoxicity screen, Renal Cancer panel; conditions: Homo sapiens
RXF 393 = assay: as above; conditions: Homo sapiens
SN12C = assay: as above; conditions: Homo sapiens
UO-31 = assay: as above; conditions: Homo sapiens
MDA-MB-231/ATCC = assay: NCI growth inhibition and cytotoxicity screen, Breast Cancer panel; conditions: Homo sapiens
BT-549 = assay: as above; conditions: Homo sapiens
T-47D = assay: as above; conditions: Homo sapiens, T47D
IGROV1 = assay: NCI growth inhibition and cytotoxicity screen, Ovarian Cancer panel; conditions: Homo sapiens
OVCAR-5 = assay: as above; conditions: Homo sapiens
SK-OV-3 = assay: as above; conditions: Homo sapiens
DU-145 = assay: NCI growth inhibition and cytotoxicity screen, Prostate Cancer panel; conditions: Homo sapiens
[1] = read-out: LC50 (the source's name)

With COc1cc(/C=C/c2nc3ccccc3s2)cc(OC)c1OC [Formula (I)(d)] the GI50 (NCI-H522) was 0.16 nM, the CC50 (NCI-H522; [1]) was 47900 nM and the GI50 (SF-295) was 0.07 nM. The CC50 (SF-295; [1]) was over 100000 nM, the GI50 (HL-60(TB); HL-60) was 0.037 nM and the CC50 (HL-60(TB); HL-60, read-out: LC50) was over 100000 nM. The GI50 (OVCAR-3; OVCAR-3) was 0.069 nM, the CC50 (OVCAR-3; OVCAR-3, read-out: LC50) was over 100000 nM and the GI50 (CCRF-CEM) was 0.13 nM. For the same compound, the CC50 (CCRF-CEM; read-out: LC50) was over 100000 nM, the GI50 (K-562; K562) was 0.041 nM and the CC50 (K-562; K562, read-out: LC50) was over 100000 nM. It also gave a GI50 (RPMI-8226; RPMI-8226) of 0.15 nM, a CC50 (RPMI-8226; RPMI-8226, read-out: LC50) of over 100000 nM and a GI50 (LOX-IMVI) of 1.9 nM. For the same compound, the CC50 (LOX-IMVI; read-out: LC50) was 67900 nM, the GI50 (MDA-MB-435; MDA-MB-435) was 0.024 nM and the CC50 (MDA-MB-435; MDA-MB-435, read-out: LC50) was 44600 nM. For the same compound, the GI50 (SK-MEL-2; SK-MEL-2) was 0.064 nM, the CC50 (SK-MEL-2; SK-MEL-2, read-out: LC50) was 64200 nM and the GI50 (UACC-257; UACC-257) was 15 nM. For the same compound, the CC50 (UACC-257; UACC-257, read-out: LC50) was over 100000 nM, the GI50 (SF-539; SF-539) was 0.076 nM and the CC50 (SF-539; SF-539, read-out: LC50) was 56200 nM. It also gave a GI50 (SNB-19; SNB-19) of 0.095 nM, a CC50 (SNB-19; SNB-19, read-out: LC50) of over 100000 nM and a GI50 (SNB-75; SNB-75) of 0.16 nM. The CC50 (SNB-75; SNB-75, read-out: LC50) was over 100000 nM, the GI50 (U251; U-251) was 0.88 nM and the CC50 (U251; U-251, read-out: LC50) was over 100000 nM. It also gave a GI50 (A549/ATCC; A549) of 0.11 nM, a CC50 (A549/ATCC; A549, read-out: LC50) of over 100000 nM and a GI50 (HOP-92; HOP-92) of 0.036 nM. It also gave a CC50 (HOP-92; HOP-92, read-out: LC50) of 77400 nM, a GI50 (NCI-H226; NCI-H226) of 0.24 nM and a CC50 (NCI-H226; NCI-H226, read-out: LC50) of 88500 nM. For the same compound, the GI50 (NCI-H23; NCI-H23) was 0.72 nM, the CC50 (NCI-H23; NCI-H23, read-out: LC50) was over 100000 nM and the GI50 (HCC-2998; HCC 2998) was 2.23 nM. It also gave a CC50 (HCC-2998; HCC 2998, read-out: LC50) of 63500 nM, a GI50 (A498; A498) of 0.041 nM and a CC50 (A498; A498, read-out: LC50) of 35800 nM. It also gave a GI50 (RXF 393; RXF 393) of 0.14 nM, a CC50 (RXF 393; RXF 393, read-out: LC50) of 97600 nM and a GI50 (SN12C) of 9.37 nM. For the same compound, the CC50 (SN12C; read-out: LC50) was over 100000 nM, the GI50 (UO-31; UO-31) was 0.37 nM and the CC50 (UO-31; UO-31, read-out: LC50) was over 100000 nM. The GI50 (MDA-MB-231/ATCC; MDA-MB-231) was 0.71 nM, the CC50 (MDA-MB-231/ATCC; MDA-MB-231, read-out: LC50) was over 100000 nM and the GI50 (BT-549; BT-549) was 3.7 nM. The CC50 (BT-549; BT-549, read-out: LC50) was 58800 nM, the GI50 (T-47D) was 0.96 nM and the CC50 (T-47D; read-out: LC50) was over 100000 nM. It also gave a GI50 (IGROV1; IGROV-1) of 0.24 nM, a CC50 (IGROV1; IGROV-1, read-out: LC50) of 94200 nM and a GI50 (OVCAR-5; OVCAR-5) of 0.93 nM. It also gave a CC50 (OVCAR-5; OVCAR-5, read-out: LC50) of over 100000 nM, a GI50 (SK-OV-3; SK-OV-3) of 0.16 nM and a CC50 (SK-OV-3; SK-OV-3, read-out: LC50) of over 100000 nM. The GI50 (DU-145; DU-145) was 0.27 nM and the CC50 (DU-145; DU-145, read-out: LC50) was over 100000 nM.
